Legend:
Test in all cases: Test C postemergence
[1] = test system: kochia; type: in vivo, Kochia scoparia
Summary of the method: (§1)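 Scores of 0 (no effect) to 100 (complete control) were assigned by eye after 13–15 days, comparing treated pots with controls. Soil-applied (preemergence) treatments went onto seeds in loam and sand; foliar (postemergence) treatments onto 1- to 4-leaf plants in peat medium.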

[2] = test system: crabgrass, large; type: in vivo, Digitaria sanguinalis
Summary of the method: as §1

[3] = test system: chickweed; type: in vivo, Stellaria media
Summary of the method: as §1

[4] = test system: morningglory; type: in vivo, Ipomoea coccinea
Summary of the method: as §1

[5] = test system: oilseed rape; type: in vivo, Brassica napus
Summary of the method: as §1

[6] = test system: velvetleaf; type: in vivo, Abutilon theophrasti; conditions: for Velvetleaf plant response rating: scale 0 to 100
Summary of the method: as §1

[7] = test system: waterhemp; type: in vivo, Amaranthus rudis; conditions: for Waterhemp plant response rating: scale 0 to 100
Summary of the method: as §1

[8] = test system: pigweed; type: in vivo, Amaranthus retroflexus
Summary of the method: as §1

[9] = test system: blackgrass; type: in vivo, Alopecurus myosuroides
Summary of the method: as §1

[10] = test system: corn; type: in vivo, Zea mays
Summary of the method: as §1

[11] = test system: ragweed; type: in vivo, Ambrosia elation
Summary of the method: as §1

[12] = test system: soybean; type: in vivo, Glycine max
Summary of the method: as §1

[13] = test system: galium; type: in vivo, Galium aparine
Summary of the method: as §1

[14] = test system: nutsedge, yellow; type: in vivo, Cyperus esculentus
Summary of the method: as §1

[15] = test system: ryegrass, Italian; type: in vivo, Lolium multiflorum
Summary of the method: as §1

[16] = test system: johnsongrass; type: in vivo, Sorghum halepense
Summary of the method: as §1

[17] = test system: oat, wild; type: in vivo, Avena fatua
Summary of the method: as §1

[18] = test system: foxtail, giant; type: in vivo, Setaria faberii
Summary of the method: as §1

[19] = Postemergence, 31 g ai/ha, visually evaluated after 13 to 15 days
[20] = postemergence, 62 g ai/ha, scale 0 to 100
[21] = postemergence, 250 g ai/ha, scale 0 to 100 (0 no effect, 100 complete control)
[22] = postemergence, 125 g ai/ha, scale 0 to 100, 0 no effect, 100 complete control

## CCCc1cc(C(=O)NCC(F)(F)F)nn1Cc1cc(C(F)(F)F)nn1C [Compound 138]
[1]; [19]
  Plant response rating (scale of 0 to 100 where 0 is no effect and 100 is complete control), Kochia: 100
[1]; [20]
  Kochia plant response rating: 90
[1]; [21]
  Plant response rating, Kochia: 90
[1]; [22]
  Plant response rating, Kochia: 90
[2]; [19]
  Plant response rating (scale of 0 to 100 where 0 is no effect and 100 is complete control), Crabgrass, Large: 5
[2]; [20]
  Crabgrass, Large plant response rating: 5
[2]; [21]
  Plant response rating, Crabgrass, Large: 70
[2]; [22]
  Plant response rating, Crabgrass, Large: 30
[3]; [19]
  Plant response rating (scale of 0 to 100 where 0 is no effect and 100 is complete control), Chickweed: 70
[3]; [20]
  Chickweed plant response rating: 80
[3]; [21]
  Plant response rating, Chickweed: 90
[3]; [22]
  Plant response rating, Chickweed: 80
[4]; [19]
  Plant response rating (scale of 0 to 100 where 0 is no effect and 100 is complete control), Morningglory: 60
[4]; [20]
  Morningglory plant response rating: 85
[4]; [21]
  Plant response rating, Morningglory: 95
[4]; [22]
  Plant response rating, Morningglory: 85
[5]; [19]
  Plant response rating (scale of 0 to 100 where 0 is no effect and 100 is complete control), Oilseed Rape: 55
[5]; [20]
  Oilseed Rape plant response rating: 60
[5]; [21]
  Plant response rating, Oilseed Rape: 60
[5]; [22]
  Plant response rating, Oilseed Rape: 80
[6]; [19]
  Plant response rating (scale of 0 to 100 where 0 is no effect and 100 is complete control), Velvetleaf: 30
[6]; postemergence, 62 g ai/ha
  Velvetleaf plant response rating: 40
[6]; [21]
  Plant response rating, Velvetleaf: 50
[6]; postemergence
  Velvetleaf plant response rating: 25
[7]; [19]
  Plant response rating (scale of 0 to 100 where 0 is no effect and 100 is complete control), Waterhemp: 75
[7]; postemergence, 62 g ai/ha
  Waterhemp plant response rating: 70
[7]; [21]
  Plant response rating, Waterhemp: 95
[7]; postemergence
  Waterhemp plant response rating: 100
[8]; [19]
  Plant response rating (scale of 0 to 100 where 0 is no effect and 100 is complete control), Pigweed: 75
[8]; [20]
  Pigweed plant response rating: 85
[8]; [21]
  Plant response rating, Pigweed: 85
[8]; [22]
  Plant response rating, Pigweed: 80
[9]; [19]
  Plant response rating (scale of 0 to 100 where 0 is no effect and 100 is complete control), Blackgrass: 5
[9]; [20]
  Blackgrass plant response rating: 10
[9]; [21]
  Plant response rating, Blackgrass: 50
[9]; [22]
  Plant response rating, Blackgrass: 20
[10]; [19]
  Plant response rating (scale of 0 to 100 where 0 is no effect and 100 is complete control), Corn: 15
[10]; [20]
  Corn plant response rating: 15
[10]; [21]
  Plant response rating, Corn: 30
[10]; [22]
  Plant response rating, Corn: 15
[11]; [19]
  Plant response rating (scale of 0 to 100 where 0 is no effect and 100 is complete control), Ragweed: 10
[11]; [20]
  Ragweed plant response rating: 30
[11]; [21]
  Plant response rating, Ragweed: 60
[11]; [22]
  Plant response rating, Ragweed: 50
[12]; [19]
  Plant response rating (scale of 0 to 100 where 0 is no effect and 100 is complete control), Soybean: 65
[12]; [20]
  Soybean plant response rating: 75
[12]; [21]
  Plant response rating, Soybean: 65
[12]; [22]
  Soybean plant response rating: 90
[13]; [19]
  Plant response rating (scale of 0 to 100 where 0 is no effect and 100 is complete control), Galium: 65
[13]; [20]
  Galium plant response rating: 70
[13]; [21]
  Plant response rating, Galium: 80
[13]; [22]
  Plant response rating, Galium: 75
[14]; [19]
  Plant response rating (scale of 0 to 100 where 0 is no effect and 100 is complete control), Nutsedge, Yellow: 0
[14]; [20]
  Nutsedge, Yellow plant response rating: 0
[14]; [21]
  Plant response rating, Nutsedge, Yellow: 5
[14]; [22]
  Plant response rating, Nutsedge, Yellow: 5
[15]; [19]
  Plant response rating (scale of 0 to 100 where 0 is no effect and 100 is complete control), Ryegrass, Italian: 5
[15]; [20]
  Ryegrass, Italian plant response rating: 15
[15]; [21]
  Plant response rating, Ryegrass, Italian: 10
[15]; [22]
  Plant response rating, Ryegrass, Italian: 5
[16]; [19]
  Plant response rating (scale of 0 to 100 where 0 is no effect and 100 is complete control), Johnsongrass: 10
[16]; [20]
  Johnsongrass plant response rating: 10
[16]; [21]
  Plant response rating, Johnsongrass: 20
[16]; [22]
  Plant response rating, Johnsongrass: 10
[17]; [19]
  Plant response rating (scale of 0 to 100 where 0 is no effect and 100 is complete control), Oat, Wild: 10
[17]; [20]
  Oat, Wild plant response rating: 20
[17]; [21]
  Plant response rating, Oat, Wild: 30
[17]; [22]
  Plant response rating, Oat, Wild: 10
[18]; [19]
  Plant response rating (scale of 0 to 100 where 0 is no effect and 100 is complete control), Foxtail, Giant: 5
[18]; [20]
  Foxtail, Giant plant response rating: 5
[18]; [21]
  Plant response rating, Foxtail, Giant: 50
[18]; [22]
  Plant response rating, Foxtail, Giant: 10
